From patent US20150374709A1, “TETRA-SUBSTITUTED NDGA DERIVATIVES VIA ETHER BONDS AND CARBAMATE BONDS AND THEIR SYNTHESIS AND PHARMACEUTICAL USE” (ERIMOS PHARMACEUTICALS LLC, priority 2006, published 2015)
Values joined by “and” are separate entries in the source; they are usually repeats but may differ in a detail not shown here. Identical values can stand only once. Counter-ions that a name gives are not always drawn. Like-named read-outs stand apart in the source and are kept apart here.

Columns and labels:
A549 (lung carcinoma) = assay: MTS cell viability assay, A549; assay type: cell-based; conditions: Homo sapiens
Excerpt: (§1) Studies performed regarding cytotoxicity included the well-known MTS, Trypan Blue and MTT protocols. The MTS studies were done using the CellTiter 96®AQueous One Solution Cell Proliferation Assay (Promega Corporation, Madison, Wis. USA). Metabolically active, namely viable, cells turn MTS, a tetrazolium compound (3-(4,5-dimethylthiazol-2-yl)-5-(3-carboxymethoxyphenyl)-2-(4-sulfophenyl)-2H-tetrazolium, inner salt) into colored formazan, which is soluble in tissue culture medium. The measurement of the absorbance of the formazan is read at 490 nm. The ready to use reagent is added directly to the cells in media in 96-well plates, incubated 1-4 hours and the results are recorded by the plate reader. The IC50 is estimated by graphing the gathered data. The IC50 is the concentration of the tested material that inhibits 50% of growth or viability of the tested material compared to a control.
(§2) Three cell lines obtained from ATCC and maintained as directed by ATCC were tested: HeLa (cervical adenocarcinoma), A549 (lung carcinoma), and COS-7 (SV40 transformed monkey kidney). Studies of these cell lines are considered to be indicative of the effect of tested substances on mammalian, including human, diseases.
(§3) All compounds were dissolved in DMSO and DMSO is used as the placebo. The samples were first dissolved into 10 mM dilutions in DMSO and then diluted further to 5, 1, 0.5, 0.1, 0.05, and 0.01 mM solutions. These solutions were added to the media at a 1% concentration (1 μl to 100 μl media) to treat the cells with 100, 50, 10, 5, 1, 0.5, and 0.1 μM of the compound. […] Solutions were checked before use for precipitation, especially the 10 mM solutions. If there was precipitation, they were warmed 65° C. and added to warmed media.
(§4) Wells on a 96-well plate were seeded with 1.5-8×10^4 cells in 100 μl media and incubated overnight. The outside wells of the plate were filled with 200 μl sterile, deionized (DI) water to curb media evaporation. After 24 hours, test chemicals were prepared in media at a concentration of 1% media volume. The test sample media were added, mixing with pipette before adding 100 μl per well. Media was added to the “Media Only” wells. The well plate and its contents were incubated for 24-72 hours, depending on the study conducted. On the thy of the MTS assay, the MTS reagent was removed from the refrigerator and brought to room temperature. Using the multichannel pipette, 20 μl of the MTS reagent was added to each well and incubated for one to four hours. The plate was read at 490 nm with a reference wavelength of 690 nm after one hour in the incubator thereafter until the blank wells were at about 0.2 OD. The results were then scanned into a Microsoft® Excel® template designed to perform all necessary calculations whim data are entered. The data were checked for statistical errors; data points that are within 10% of the mean of the data points for that group were included. The average of the blanks (“Media Only”) were subtracted and the data were inserted into a chart that represents growth response, treated/untreated.

[1] = system: HeLa (cervical adenocarcinoma); assay: MTS cell viability assay, HeLa; assay type: cell-based; conditions: Homo sapiens, HeLa, read-out: HeLa IC50
Excerpt: as §1, §2, §3, §4

[2] = system: apoptosis of cells based on DNA fragmentation; assay: TiterTACS DNA fragmentation apoptosis assay; assay type: cell-based; conditions: TiterTACS apoptosis detection
Protocol: Antiproliferative activity is determined using the TiterTACS® Apoptosis Detection Kit (R&D Systems Inc., Minneapolis, Minn. USA) relating to apoptosis of cells based on DNA fragmentation, and by the ELISA VEGF ([…]) and survivin assays.
In the DNA fragmentation assay, in situ detection of apoptosis is specifically achieved with TiterTACS® 96-well Apoptosis Detection kit, Catalog No. TA600 (R&D Systems, Inc.). The TiterTACS® assay provides quantification of apoptosis in cultured cells without direct counting of labeled cells using colorimetric detection. Cells are treated with the test compounds, left untreated as experimental negative controls, or treated with TACS nuclease as positive controls. TACS nuclease allows positive controls to be generated for each experimental system: a brief treatment of cells with the TACS nuclease prior to labeling generates DNA breaks in every cell, providing an appropriate positive control specific for the system under study. The TdT enzyme that catalyzes the addition of dNTPs to DNA fragments allows for colorimetric detection of at 450 nm by using a streptavidin-HRP solution followed by the TACS-Sapphire substrate. A high absorbance at 450 nm is indicative of apoptosis in the cells. Treated cells are compared to untreated cells and to nuclease-cleaved cells to assess the extent of apoptosis.

survivin = assay: ELISA survivin assay (cell lysates); assay type: cell-based, Human
Excerpt: Survivin is an inhibitor of apoptosis that is abundantly expressed in many human cancers, but not in normal adult human tissue, and is considered a possible modulator of the terminal effector phase of cell death/survival. Survivin is expressed in G2-M in a cell cycle-dependent manner, binding directly to mitotic spindle microtubules. […] Phosphorylated survivin acts on the caspase pathway to suppress the formation of caspase-3 and caspase-9, thereby inhibiting apoptosis. Thus, compounds that reduce the expression of survivin will be expected to increase the rate of apoptosis and cell death.
Effects of the tested compounds on survivin were studied following manufacturer's instructions using the Surveyor™ IC Human Total Survivin Immunoassay, Catalog No. SUV647 (R&D Systems, Inc.). Cell lysates were analyzed for survivin protein content. The kit includes a plate coated with an antibody specific for survivin and a biotinylated antibody reagent that recognizes survivin bound to the plate. The plate is read on a plate reader set at 450 nm and corrected at 540 nm. A protein assay according to the Bradford method (Bradford, M. 1976, Anal Biochem 72: 248-254) was used to quantify and normalize the samples according to total protein content. Results from a standard curve enable the user to quantify the amount of survivin protein in each sample.

VEGF = assay: ELISA VEGF assay (DFO-treated cells); assay type: cell-based, Human
Excerpt: ELISA (Enzyme-Linked ImmunoSorbent Assay) VEGF studies were done following manufacturer's instructions using the Endogen® Human VEGF ELISA kit, Catalog No. […] (Pierce Biotechnology, Inc., Rockford, Ill. USA). Hypoxic conditions are created for the cells by treating them with desferrioxamine (DFO), which chelates iron and causes the cells to secrete VEGF into the media. The supernatant (media) was removed and frozen for testing, and the cells were counted with the Trypan Blue assay so that the results can be normalized to cell count. The VEGF is measured with a sandwich ELISA that captures the protein in media on an antibody-coated microplate, and then uses a biotinylated antibody reagent to detect the protein. Results from a standard curve enable the user to quantify the amount of protein in each sample.

[3] = Caco-2 monolayer bidirectional permeability; assay type: in vitro ADME, human; conditions: human, Caco-2, pH 7.4; control at 5 μM, 90 minutes, duplicate monolayers
Protocol: (§5) Permeability studies were conducted by an outside contractor on behalf of the assignee of the present invention and application to determine the permeability of Compound A through Caco-2 monolayers. An important factor of oral bioavailability is the ability of e compound to be absorbed in the small intestine. Measurement of drug apparent permeability (Papp) through cell monolayers is well correlated with human intestinal absorption, and several mammalian cell lines, including Caco-2, LLC-PK1 and MDCK, are appropriate for this measurement (Artursson, P. et al., Correlation between oral drug absorption in humans and apparent drug permeability coefficients in human intestinal epithelial (Caco-2) cells. Biochem Biophys Res Comm 175:880-885 (1991); Stewart. B. H., et al., Comparison of intestinal permeabilities in multiple in vitro and in situ models: relationship to absorption in humans. Pharm Res 12:693 (1995)). P-Glycoprotein (P-gp, encoded by MDR1) is a member of the ABC transporter super family and is expressed in the human intestine, liver and other tissues. Intestinal expression of P-gp may affect the oral bioavailability of drug molecules that are substrates for this transporter. Interaction with P-gp can be studied using direct assays of drug transport in polarized cell systems such as Caco-2 cell monolayers, and human P-gp cDNA-expressing LLC-PK1 and MDCK cell monolayers. Caco-2 cells (human adenocarcinoma colonic cell line Caco-2, ATCC Cat. No. […] The cells were cultured for 21-25 days with media replacement every 3-4 days. Monolayer integrity was evaluated by pre-experimental trans-epithelial electrical resistance (TEER) measurements and post-experimental lucifer yellow A to B flux determinations. […] Receiver solution was prepared by adding 1% DMSO to transport buffer. The test solution was of Compound A in DMSO in transport buffer at a final DMSO concentration of 1%. […] The donor and receiver solutions were added to the apical or basolateral chambers of the monolayers (depending on the direction of transport to be measured). The monolayers were incubated on an orbital shaker (50 rpm) at 37° C., with ambient humidity and CO2. After 90 minutes, samples from the donor and receiver chambers were removed for analysis. […] Duplicate monolayers were used for each incubation. Samples were analyzed by LC/MS/MS using peak area ratios to an internal standard. Test article concentrations were calculated based on the peak area ratios obtained for appropriate dilutions of the donor solution containing the test article at the nominal concentration in transport buffer. Samples were diluted as appropriate to ensure that the response was within the linear range of the mass spec detector. Comparator and control samples were analyzed by liquid scintillation counting. Lucifer yellow concentrations were determined using a fluorescence plate reader.

Caco-2 cell monolayers = assay: Caco-2 monolayer bidirectional permeability; assay type: in vitro ADME, human
Protocol: as §5

[4] = read-out: Survivin IC50; survivin protein in cell lysates, normalized to total protein
[5] = A549, MTS assay, read-out: A549 IC50
[6] = survivin protein in cell lysates, normalized to total protein; read-out: Survivin IC50
[7] = VEGF released into media by DFO-treated cells, normalized to cell count; read-out: VEGF IC50

## C[C@H](Cc1ccc(OCCCCN2CCN(C)CC2)c(OCCCCN2CCN(C)CC2)c1)[C@@H](C)Cc1ccc(OCCCCN2CCN(C)CC2)c(OCCCCN2CCN(C)CC2)c1 [Compound O, 1,4-bis{3,4-bis[4-(N-methyl-piperazino-N′-yl)butoxyl]phenyl}-2,3-dimethyl-(2R,3S)-butane octa-hydrochloride]
A549 (lung carcinoma); A549, read-out: A549 IC50
  IC50: 8 to 9 µM
[1]
  IC50: 10 to 30 µM
[2]
  DNA fragmentation: Positive
survivin; [4]
  IC50: 14 µM
VEGF; read-out: VEGF IC50; VEGF released into media by DFO-treated cells, normalized to cell count
  IC50: 18 µM

## C[C@H]1O[C@@H](O[C@H]2[C@@H](O)C[C@H](O[C@H]3[C@@H](O)C[C@H](O[C@H]4CC[C@@]5(C)[C@H](CC[C@@H]6[C@@H]5C[C@@H](O)[C@]5(C)[C@@H](C7=CC(=O)OC7)CC[C@]65O)C4)O[C@@H]3C)O[C@@H]2C)C[C@H](O)[C@@H]1O [digoxin, reference compound]
[3]
  Papp B→A at 90 min: 12.4 ×10⁻⁶ cm/s
Caco-2 cell monolayers; comparators/control at the concentration in the row (5 or 50 μM), 90 minutes, duplicate monolayers
  Papp mean A to B: 2.28e-06 cm/s
Caco-2 cell monolayers; comparators/control, 90 minutes
  Mass balance mean A to B: 73%
Caco-2 cell monolayers; control, 90 minutes
  Mass balance mean B to A: 79%

## C[C@H](Cc1ccc(OCCN(C)C)c(OCCN(C)C)c1)[C@@H](C)Cc1ccc(OCCN(C)C)c(OCCN(C)C)c1 [Compound H, 1,4-bis{3,4-bis(2-(N,N′-dimethylamino)-ethoxy)phenyl}-2,3-dimethyl-(2R,3S)-butane tetrakishydrochloride salt]
[2]
  DNA fragmentation: Positive
survivin; [4]
  IC50: 10 µM
VEGF; read-out: VEGF IC50; VEGF released into media by DFO-treated cells, normalized to cell count; listed as H in H2O
  IC50: 23 µM

## C[C@H](Cc1ccc(OCCN(C)C)c(OCCN(C)C)c1)[C@@H](C)Cc1ccc(OCCN(C)C)c(OCCN(C)C)c1 [Compound G, 1,4-bis{3,4-bis(2-(N,N′-dimethylamino)-ethoxy)phenyl}-2,3-dimethyl-(2R,3S)-butane]
A549 (lung carcinoma); A549, read-out: A549 IC50
  IC50: 15 to 20 µM
[1]
  IC50: 15 to 20 µM
VEGF; read-out: VEGF IC50; VEGF released into media by DFO-treated cells, normalized to cell count; listed as G in H2O
  IC50: 25 µM

## C[C@H](Cc1ccc(OCCCCN2CCCCC2)c(OCCCCN2CCCCC2)c1)[C@@H](C)Cc1ccc(OCCCCN2CCCCC2)c(OCCCCN2CCCCC2)c1 [Compound D, 1,4-bis{3,4-bis[4-(N-piperidino)butoxyl]phenyl}-2,3-dimethyl-(2R,3S)-butane tetrakis-hydrochloride salt]
A549 (lung carcinoma); [5]
  IC50: 1 to 5 µM
[1]; MTS assay
  IC50: 5 to 10 µM
[2]
  DNA fragmentation: Positive
survivin; [6]
  IC50: ~4 µM and 4 µM
VEGF; [7]
  IC50: ~9 µM and 9 µM

## CC(C)NCC(O)COc1cccc2ccccc12 (centres unmarked) [propranolol, reference compound]
Caco-2 cell monolayers; human, Caco-2, 90 min, pH 7.4
  Mass balance mean A to B: 71%

## OC[C@@H](O)[C@@H](O)[C@H](O)[C@H](O)CO [mannitol, reference compound]
Caco-2 cell monolayers; human, Caco-2, 90 min, pH 7.4
  Mass balance mean A to B: 96%

## C[C@H](Cc1ccc(OCCF)c(OCCF)c1)[C@@H](C)Cc1ccc(OCCF)c(OCCF)c1 [Compound K, 1,4-bis[3,4-bis(2-fluoro-ethoxyl)phenyl]-2,3-dimethyl-(2R,3S)-butane]
A549 (lung carcinoma); [5]
  IC50: > 100 µM
[1]; MTS assay
  IC50: > 100 µM

## C[C@H](Cc1ccc(OCCCCN2CCOCC2)c(OCCCCN2CCOCC2)c1)[C@@H](C)Cc1ccc(OCCCCN2CCOCC2)c(OCCCCN2CCOCC2)c1 [Compound M, 1,4-bis{3,4-bis[4-(N-morpholino)butoxyl]phenyl}-2,3-dimethyl-(2R,3S)-butane]
A549 (lung carcinoma); [5]
  IC50: 1 to 5 µM
[1]; MTS assay
  IC50: 5 to 10 µM
[2]
  DNA fragmentation: Positive
survivin; [6]
  IC50: 5 µM
VEGF; [7]
  IC50: ~9 µM and 9 µM
